The nature of experiment [1]: acridine orange displacement from DNA – biochemical, fluorescence polarization, cherry-pick, artefact control for RAD54 inhibitor project, dose response (AID 651673). The class given is functional.
Experiment [2] concerns the target T1, Dual specificity protein phosphatase 3 (Homo sapiens, UniProt P51452). As to the kind of experiment: VHR1 phosphatase inhibitors, primary screen, biochemical, absorbance, uHTS (AID 1654).
The target of experiment [3] is T2, Tyrosine-protein phosphatase non-receptor type 7 (Homo sapiens, UniProt P35236).
T2 sequence (P35236 whole entry): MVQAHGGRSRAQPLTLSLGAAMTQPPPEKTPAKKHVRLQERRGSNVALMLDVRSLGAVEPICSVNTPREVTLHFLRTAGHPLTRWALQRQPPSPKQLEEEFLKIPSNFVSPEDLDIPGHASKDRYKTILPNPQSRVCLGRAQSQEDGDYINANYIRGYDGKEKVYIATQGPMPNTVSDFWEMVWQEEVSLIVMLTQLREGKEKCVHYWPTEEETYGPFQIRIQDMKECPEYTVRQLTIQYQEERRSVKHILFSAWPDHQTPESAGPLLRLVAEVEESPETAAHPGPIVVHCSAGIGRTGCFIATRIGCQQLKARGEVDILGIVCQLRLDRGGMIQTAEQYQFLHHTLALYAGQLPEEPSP
The class given is functional.

In experiment [4] the target is Voltage-gated N-type calcium channel alpha-1B subunit/Amyloid beta A4 precursor protein-binding family A member 1 (Homo sapiens, UniProt Q00975+Q02410). It counts as protein assay.
Experiment [5] addresses T1, Dual specificity protein phosphatase 3. As to the kind of experiment: VHR1 phosphatase inhibitors, biochemical (AID 1878).
Experiment [6] addresses Troponin, cardiac muscle (Homo sapiens, UniProt P19429+P45379+P63316). As to the kind of experiment: compounds desensitizing RTF to calcium – biochemical, fluorescence, cardiac regulated thin filaments, triplicate IC50, dose response (AID 504742). The class given is protein-complex assay.
For experiment [7], the target named is T3, Small ubiquitin-related modifier 1 (Homo sapiens, UniProt P63165). Briefly: SUMO1 protein interaction blockers, potency – biochemical, fluorescence polarization, uHTS hits, dose response (AID 624382). The note with it: read-out: IC50_Mean. It counts as functional.
The target of experiment [8] is T4, Long-chain-fatty-acid--AMP ligase FadD28 (Mycobacterium tuberculosis, UniProt P9WQ59).
T4 sequence (P9WQ59 whole entry): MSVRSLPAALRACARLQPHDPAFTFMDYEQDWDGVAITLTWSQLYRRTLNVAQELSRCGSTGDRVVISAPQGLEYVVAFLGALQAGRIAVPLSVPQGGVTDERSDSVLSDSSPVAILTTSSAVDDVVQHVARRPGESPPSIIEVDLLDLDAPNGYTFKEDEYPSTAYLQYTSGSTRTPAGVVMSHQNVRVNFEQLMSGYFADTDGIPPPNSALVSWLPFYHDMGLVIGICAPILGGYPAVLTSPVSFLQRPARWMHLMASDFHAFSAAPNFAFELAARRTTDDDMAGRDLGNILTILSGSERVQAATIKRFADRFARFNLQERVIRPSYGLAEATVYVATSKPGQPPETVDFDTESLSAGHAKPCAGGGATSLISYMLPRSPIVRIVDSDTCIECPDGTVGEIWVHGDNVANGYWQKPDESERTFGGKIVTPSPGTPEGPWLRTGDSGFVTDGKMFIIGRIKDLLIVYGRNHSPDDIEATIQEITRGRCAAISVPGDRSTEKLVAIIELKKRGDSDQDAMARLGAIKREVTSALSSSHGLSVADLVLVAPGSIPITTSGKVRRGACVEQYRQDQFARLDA
As to the kind of experiment: Fluorescence polarization aasay to screen for inhibitors that compete for the binding of FadD28 to a bisubstrate Measured in Biochemical System Using Plate Reader - 2147-01_Inhibitor_Dose_CherryPick_Activity. It counts as functional, Mycobacterium tuberculosis H37Rv.

In experiment [9] the target is T3, Small ubiquitin-related modifier 1. As to the kind of experiment: SUMO1 protein-protein binding blockers, potency – biochemical, FRET, dose response (AID 624383). It counts as functional. To be noted: read-out: IC50_Mean.
The subject of experiment [10] is BJ. As to the kind of experiment: BJ-TERT fibroblast viability loss – cell-based, RAS-independent, luminescence, dose response (AID 1933). It counts as functional. To be noted: Homo sapiens.
Experiment [11] has as its target T5, Heat shock factor protein 1 (Mus musculus, UniProt P38532).
T5 sequence (P38532 whole entry): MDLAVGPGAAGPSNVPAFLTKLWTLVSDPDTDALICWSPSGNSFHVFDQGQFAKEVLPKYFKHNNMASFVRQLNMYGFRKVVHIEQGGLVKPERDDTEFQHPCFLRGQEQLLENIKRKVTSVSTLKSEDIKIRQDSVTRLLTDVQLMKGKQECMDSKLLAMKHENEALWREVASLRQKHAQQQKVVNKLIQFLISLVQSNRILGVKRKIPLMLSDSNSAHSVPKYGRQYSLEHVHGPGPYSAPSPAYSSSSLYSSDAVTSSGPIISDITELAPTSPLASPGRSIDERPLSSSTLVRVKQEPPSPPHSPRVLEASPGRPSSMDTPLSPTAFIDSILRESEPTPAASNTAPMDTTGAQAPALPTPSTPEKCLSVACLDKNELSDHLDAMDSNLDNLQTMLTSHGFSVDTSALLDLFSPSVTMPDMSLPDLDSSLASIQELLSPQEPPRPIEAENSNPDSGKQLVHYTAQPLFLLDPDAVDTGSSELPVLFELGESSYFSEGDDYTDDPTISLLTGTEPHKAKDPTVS
Briefly: decrease of HSF1-responsive luciferase luminescence – cell-based, NIH3T3, dose retest, confirmation (AID 2382).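 Note: NIH3T3 fibroblasts with HSF1-driven luciferase reporter stressed by proteasome inhibitor MG132; luminescence from HSF1-driven luciferase expression after 8 hours of MG132 stress.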 The class given is functional.

For experiment [12], the target named is G-protein coupled receptor 55 (Homo sapiens, UniProt Q9Y2T6). As to the kind of experiment: inhibition of LPI-stimulated GPR55 beta-arrestin translocation – imaging, U2OS, beta-arrestin-GFP, LPI agonist, primary screen (AID 2013).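 Note: antagonist potency measured as reduced agonist-driven arrestin aggregation.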 It counts as functional.
The target in experiment [13] is Kappa-type opioid receptor (Homo sapiens, UniProt P41145). It counts as functional.
Experiment [14] concerns Jurkat. Briefly: blockers of NF-kB activation in T cells – Jurkat, luciferase reporter, luminescence, B- and T-cell, dose response (AID 489004).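 Note: NF-kB luciferase reporter Jurkat cells stimulated with PMA plus ionomycin.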 The note with it: Homo sapiens. The class given is functional, cell-based.
Experiment [15] in a line: HEK-293T viability loss, compound-treated – cell-based, uHTS hits, cytotoxicity control for B/T-cell NF-kB inhibitor project, dose response (AID 489019).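 Note: IC50 reflects cytotoxicity as loss of cell viability.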 The class given is functional.
Experiment [16] in a line: loss of viability in HepG2 cells – cell-based, CellTiter-Glo, cherry-picked, cytotoxicity control for Shn3 inhibitor project, dose response (AID 624134). The class given is functional.
The target in experiment [17] is Nonstructural protein 1 (Influenza A virus, UniProt Q194T2). The class given is functional, Influenza A virus (A/California/07/2009(H1N1)).
Experiment [18] addresses T6, Caspase-6 (Homo sapiens, UniProt P55212).
T6 sequence (P55212 whole entry): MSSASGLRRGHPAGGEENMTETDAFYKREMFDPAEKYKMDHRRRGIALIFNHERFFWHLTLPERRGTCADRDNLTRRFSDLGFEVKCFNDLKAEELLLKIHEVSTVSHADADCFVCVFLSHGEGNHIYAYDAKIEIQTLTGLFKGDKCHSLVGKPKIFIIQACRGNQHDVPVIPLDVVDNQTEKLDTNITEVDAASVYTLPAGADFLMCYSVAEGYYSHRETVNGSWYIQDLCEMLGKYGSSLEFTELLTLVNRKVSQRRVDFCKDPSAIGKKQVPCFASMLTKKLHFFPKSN
As to the kind of experiment: inhibition of CASP6 peptide cleavage – biochemical, VEID-R110 fluorescence, cherry-pick, dose response (AID 720632).

For four compounds, AC50, IC50 and EC50 results are on record in ChEMBL document CHEMBL1201862, “PubChem BioAssay data set” (2004).

Structures are written as SMILES. Calls of active or inactive are those of the source. A value given as a limit tells only on which side of the number the result lay.

T3 sequence (P63165 whole entry): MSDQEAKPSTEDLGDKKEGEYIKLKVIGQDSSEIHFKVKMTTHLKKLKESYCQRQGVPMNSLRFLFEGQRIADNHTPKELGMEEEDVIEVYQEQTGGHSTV
T1 sequence (P51452 whole entry): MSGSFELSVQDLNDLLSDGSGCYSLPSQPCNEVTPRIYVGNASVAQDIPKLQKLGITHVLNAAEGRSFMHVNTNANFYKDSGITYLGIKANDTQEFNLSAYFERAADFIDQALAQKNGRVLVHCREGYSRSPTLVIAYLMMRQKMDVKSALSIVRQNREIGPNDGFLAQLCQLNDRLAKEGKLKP
Sequence of G-protein coupled receptor 55 (Q9Y2T6 whole entry): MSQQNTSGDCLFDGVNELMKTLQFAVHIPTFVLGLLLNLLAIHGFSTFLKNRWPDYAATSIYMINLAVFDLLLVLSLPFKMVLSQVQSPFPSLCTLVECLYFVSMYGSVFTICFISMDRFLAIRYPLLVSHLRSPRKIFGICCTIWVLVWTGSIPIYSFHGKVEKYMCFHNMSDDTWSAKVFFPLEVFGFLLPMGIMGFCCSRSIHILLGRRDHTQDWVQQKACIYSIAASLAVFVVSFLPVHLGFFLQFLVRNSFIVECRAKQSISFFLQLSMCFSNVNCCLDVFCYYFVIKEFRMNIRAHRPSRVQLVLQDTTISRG
Sequence of Kappa-type opioid receptor (P41145 whole entry): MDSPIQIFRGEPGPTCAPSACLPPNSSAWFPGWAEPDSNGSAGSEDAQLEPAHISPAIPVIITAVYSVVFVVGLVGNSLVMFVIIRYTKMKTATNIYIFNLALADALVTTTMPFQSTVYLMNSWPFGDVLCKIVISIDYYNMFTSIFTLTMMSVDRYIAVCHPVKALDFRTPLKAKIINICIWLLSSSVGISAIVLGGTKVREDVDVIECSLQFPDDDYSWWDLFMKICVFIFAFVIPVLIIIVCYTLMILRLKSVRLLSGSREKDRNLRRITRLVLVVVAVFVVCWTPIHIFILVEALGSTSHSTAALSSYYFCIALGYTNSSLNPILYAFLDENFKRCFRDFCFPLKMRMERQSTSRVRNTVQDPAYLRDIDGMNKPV
Sequence of Nonstructural protein 1 (Q194T2 whole entry): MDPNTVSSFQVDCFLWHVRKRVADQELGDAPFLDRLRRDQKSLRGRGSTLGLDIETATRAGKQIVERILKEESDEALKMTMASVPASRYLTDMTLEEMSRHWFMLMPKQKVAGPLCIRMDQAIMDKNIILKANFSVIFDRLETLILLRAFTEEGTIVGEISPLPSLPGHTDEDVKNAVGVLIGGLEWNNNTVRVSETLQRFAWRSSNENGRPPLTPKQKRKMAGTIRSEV
Sequence of Voltage-gated N-type calcium channel alpha-1B subunit/Amyloid beta A4 precursor protein-binding family A member 1 (Q00975 whole entry): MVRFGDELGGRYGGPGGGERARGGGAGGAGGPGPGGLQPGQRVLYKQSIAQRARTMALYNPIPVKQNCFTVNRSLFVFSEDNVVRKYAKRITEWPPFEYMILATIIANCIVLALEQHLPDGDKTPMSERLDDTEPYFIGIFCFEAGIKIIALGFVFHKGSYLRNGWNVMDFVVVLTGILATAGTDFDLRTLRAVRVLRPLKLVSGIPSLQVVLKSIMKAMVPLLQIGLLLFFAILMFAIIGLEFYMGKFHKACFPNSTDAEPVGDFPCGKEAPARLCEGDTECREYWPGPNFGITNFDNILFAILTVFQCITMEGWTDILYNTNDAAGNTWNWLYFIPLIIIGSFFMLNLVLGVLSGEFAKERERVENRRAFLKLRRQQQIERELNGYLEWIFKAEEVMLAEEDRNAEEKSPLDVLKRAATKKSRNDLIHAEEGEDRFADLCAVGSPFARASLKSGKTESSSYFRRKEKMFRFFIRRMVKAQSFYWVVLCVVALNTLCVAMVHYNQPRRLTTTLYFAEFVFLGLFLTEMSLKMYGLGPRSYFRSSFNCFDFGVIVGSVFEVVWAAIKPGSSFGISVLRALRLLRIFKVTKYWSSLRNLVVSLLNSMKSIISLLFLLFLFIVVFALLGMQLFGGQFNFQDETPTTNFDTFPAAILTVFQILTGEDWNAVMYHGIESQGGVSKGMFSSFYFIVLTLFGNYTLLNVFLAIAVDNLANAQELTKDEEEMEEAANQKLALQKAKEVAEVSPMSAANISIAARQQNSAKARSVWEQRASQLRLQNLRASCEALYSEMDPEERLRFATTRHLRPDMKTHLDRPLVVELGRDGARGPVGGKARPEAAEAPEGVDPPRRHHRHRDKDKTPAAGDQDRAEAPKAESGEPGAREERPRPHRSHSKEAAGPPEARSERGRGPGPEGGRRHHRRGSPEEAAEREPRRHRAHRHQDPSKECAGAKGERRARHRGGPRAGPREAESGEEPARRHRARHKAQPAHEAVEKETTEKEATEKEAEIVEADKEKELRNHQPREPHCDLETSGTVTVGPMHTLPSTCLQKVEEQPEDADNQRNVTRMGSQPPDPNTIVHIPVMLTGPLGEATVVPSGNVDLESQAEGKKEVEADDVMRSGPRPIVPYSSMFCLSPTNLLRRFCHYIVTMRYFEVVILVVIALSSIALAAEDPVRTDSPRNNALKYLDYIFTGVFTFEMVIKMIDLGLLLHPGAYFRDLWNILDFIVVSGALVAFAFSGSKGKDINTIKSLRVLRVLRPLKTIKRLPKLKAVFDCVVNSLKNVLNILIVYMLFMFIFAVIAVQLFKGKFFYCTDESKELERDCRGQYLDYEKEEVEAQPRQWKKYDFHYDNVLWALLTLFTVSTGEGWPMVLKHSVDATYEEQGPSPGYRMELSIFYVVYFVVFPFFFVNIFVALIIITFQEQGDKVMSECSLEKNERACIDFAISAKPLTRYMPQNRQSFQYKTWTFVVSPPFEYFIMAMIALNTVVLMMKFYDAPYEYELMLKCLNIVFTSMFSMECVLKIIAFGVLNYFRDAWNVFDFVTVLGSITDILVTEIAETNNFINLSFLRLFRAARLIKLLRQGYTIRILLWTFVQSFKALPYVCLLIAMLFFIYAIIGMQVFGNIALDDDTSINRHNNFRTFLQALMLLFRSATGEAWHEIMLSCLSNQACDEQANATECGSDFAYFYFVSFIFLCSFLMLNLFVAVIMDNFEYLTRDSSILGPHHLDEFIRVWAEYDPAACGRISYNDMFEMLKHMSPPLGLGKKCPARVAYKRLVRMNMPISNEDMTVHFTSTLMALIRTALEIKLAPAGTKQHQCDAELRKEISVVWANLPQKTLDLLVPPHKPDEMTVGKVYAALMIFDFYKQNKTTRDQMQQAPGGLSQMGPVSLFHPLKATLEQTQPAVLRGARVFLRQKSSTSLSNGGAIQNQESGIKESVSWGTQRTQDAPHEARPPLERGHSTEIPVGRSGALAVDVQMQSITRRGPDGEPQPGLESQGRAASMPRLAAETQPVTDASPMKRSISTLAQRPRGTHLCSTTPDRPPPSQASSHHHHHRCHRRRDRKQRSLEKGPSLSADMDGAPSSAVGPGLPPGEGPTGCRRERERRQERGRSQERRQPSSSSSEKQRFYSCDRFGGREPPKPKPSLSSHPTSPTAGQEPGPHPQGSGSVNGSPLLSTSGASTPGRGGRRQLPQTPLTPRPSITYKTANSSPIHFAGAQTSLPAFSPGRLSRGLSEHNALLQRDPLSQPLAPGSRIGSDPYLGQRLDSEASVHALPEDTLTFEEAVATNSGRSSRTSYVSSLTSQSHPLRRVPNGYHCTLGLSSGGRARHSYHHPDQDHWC
Sequence of Voltage-gated N-type calcium channel alpha-1B subunit/Amyloid beta A4 precursor protein-binding family A member 1 (Q02410 whole entry): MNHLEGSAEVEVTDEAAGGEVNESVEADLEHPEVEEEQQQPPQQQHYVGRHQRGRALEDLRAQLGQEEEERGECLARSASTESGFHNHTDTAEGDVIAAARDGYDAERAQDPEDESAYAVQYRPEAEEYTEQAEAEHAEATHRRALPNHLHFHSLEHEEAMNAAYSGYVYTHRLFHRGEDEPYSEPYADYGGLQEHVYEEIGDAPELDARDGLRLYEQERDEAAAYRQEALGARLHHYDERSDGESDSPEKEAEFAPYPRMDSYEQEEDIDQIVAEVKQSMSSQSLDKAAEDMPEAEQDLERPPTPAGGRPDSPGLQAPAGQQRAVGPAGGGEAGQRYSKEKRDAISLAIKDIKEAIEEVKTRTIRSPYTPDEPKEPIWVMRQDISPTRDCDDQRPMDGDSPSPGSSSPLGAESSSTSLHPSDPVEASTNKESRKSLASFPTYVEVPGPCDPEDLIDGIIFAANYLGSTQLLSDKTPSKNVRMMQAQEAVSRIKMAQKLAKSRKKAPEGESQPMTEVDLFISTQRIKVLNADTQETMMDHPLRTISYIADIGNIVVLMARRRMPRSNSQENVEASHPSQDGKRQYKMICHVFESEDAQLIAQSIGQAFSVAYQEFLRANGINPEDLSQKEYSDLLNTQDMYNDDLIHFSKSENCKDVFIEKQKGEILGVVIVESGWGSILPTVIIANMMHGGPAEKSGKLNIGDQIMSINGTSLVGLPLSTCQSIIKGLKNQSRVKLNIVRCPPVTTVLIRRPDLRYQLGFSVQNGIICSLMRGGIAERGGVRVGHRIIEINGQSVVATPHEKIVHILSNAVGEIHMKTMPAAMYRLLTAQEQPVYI

For `CCN(CC)CCN1C(=O)c2cccc3cc(N)cc(c23)C1=O`, in [1], the AC50 was 56.9 µM (active).
With `O=C(O)c1cccc(-n2cccc2/C=C2/NC(=O)N(c3ccc(Cl)cc3)C2=O)c1`, the IC50 is < 0.98 µM (inactive) in experiment [2]; 4.89 µM (active) in [3]; 12.1 µM (active) in experiment [4]; < 1.23 µM (inactive) in experiment [5]; 3.45 µM (active) in [6]; 21.3 µM (inactive) in experiment [7]. For the same compound, the IC50 in experiment [9] is 17.4 µM (active). Besides, in [8], the concentration at half-maximal activity (AC50) is 58 µM (active).
Consider `C=C1C(=O)O[C@@H]2C[C@@H](C)[C@@H]3C=CC(=O)[C@@]3(C)[C@@H](OC(=O)CC(=O)O[C@H]3[C@@H]4C(=C)C(=O)O[C@@H]4C[C@@H](C)[C@@H]4C=CC(=O)[C@]43C)[C@H]12`, for which the figures for the EC50 in experiment [10] and in experiment [11] were 0.354 µM (inconclusive) and 0.98 µM (active), respectively. Moreover, the IC50 is 1.85 µM (active) in experiment [12], 9.14 µM in experiment [13], 0.29 µM (active) in experiment [14] and > 80 µM (inactive) in experiment [15]. In addition, the AC50 in experiment [16] was 0.895 µM (active).
Consider `O=S(=O)(O)c1cc(Cl)cc(N=Nc2ccc(O)cc2O)c1O`, for which, in experiment [17], the IC50 was 8.3 µM (active). For the same compound, the concentration at half-maximal activity (AC50) in experiment [18] was 2.44 µM (active).
